From patent US5129937A, “Pyridyloxypyrimidine derivatives, preparation process thereof, and herbicidal compositions containing the same as active ingredients” (Mitsui Toatsu Chemicals Incorporated, priority 1989, dated 1992)

Tests used:
Assay type in all cases: in vivo
[1] = system: Barnyardgrass (Echinochloa crus-galli); assay: Submerged Soil Treatment Test (Growth Stage Treatment); conditions: 30 g ai/a, growth stage treatment (barnyardgrass two-leaf stage), granule, observed 30 days later
[2] = system: Arrowhead sp. (Sagittaria pygmaea); assay: Submerged Soil Treatment Test (Pre-Emergence Treatment); conditions: 30 g ai/a, granule, observed 30 days later
Procedure: (§1) 1/5000-are Wagner pots were filled with soil. Seeds or tubers of barnyardgrass, bulrush and Sagittaria pygmaea were seeded or planted under submerged condition. Two pairs of rice seedlings (2-3 leaf stage), which had been reared in advance, were transplanted to each pot and were allowed to germinate in a green house. Each pair consisted of two rice seedlings. On day later (before emergence of weeds), each pot was treated with a granule which had been prepared by processing a predetermined amount of the test composition in accordance with a similar method to the method described in Formulation Example 9. The state of emergence of weeds and the state of injury of rice were observed 30 days later. In the table, the degrees of damages of the test plants and the degrees of injury of rice are shown in a similar manner to Example 2.

[3] = system: Barnyardgrass (Echinochloa crus-galli); assay: as above; conditions: 30 g ai/a, granule, observed 30 days later
Procedure: as §1

[4] = system: Bulrush (Scirpus juncoides); assay: as above; conditions: 30 g ai/a, granule, observed 30 days later
Procedure: as §1

[5] = system: Crabgrass (Digitaria adsendens); assay: Upland Soil Application Test; conditions: 30 g ai/a; soil application before emergence, wettable powder; observed 30 days later
Procedure: (§2) Resin-made 1/2500-are pots were filled with the soil of an upland field. After they were fertilized, soybean, corn and cotton were seeded and 2-3 cm soil covering was applied. Seeds of redroot pigweed, morningglory (Ipomoea purpurea), common lambsquarters, barnyardgrass, green foxtail, large crabgrass, foxtail meadow and johnsongrass had been uniformly mixed with the soil. They were allowed to germinate in a green house. One day later (before emergence of weeds), a wettable powder prepared from a predetermined amount of each test compound in a similar manner to the method described in Formulation Example 1 was diluted with water and then sprayed evenly at an application rate equal to 10 l per are onto the surface of the soil by means of a pressure-operated ULV (ultra low volume) sprayer. Influence to the crops and weeds were observed 30 days later. The results are shown in Table 3, in which the degree of damages of each test plant and the degree of injury to each crop were determined by comparing the air-dried weights of the test plant and crop with those of the corresponding plant and crop in untreated pots and are shown in accordance with the following standard: […]

[6] = system: Barnyardgrass (Echinochloa crus-galli); assay: Upland Soil Application Test; conditions: 30 g ai/a; soil application before emergence, wettable powder; observed 30 days later
Procedure: as §2

Redroot Pigweed = assay: Upland Soil Application Test; conditions: 30 g ai/a; soil application before emergence, wettable powder; observed 30 days later
Procedure: as §2

[7] = system: Foxtail (Setaria viridis); assay: Upland Soil Application Test; conditions: 30 g ai/a; soil application before emergence, wettable powder; observed 30 days later
Procedure: as §2

Johnsongrass = assay: Upland Soil Application Test; conditions: 30 g ai/a; soil application before emergence, wettable powder; observed 30 days later
Procedure: as §2

Common lambsquarters = assay: Upland Soil Application Test; conditions: 30 g ai/a; soil application before emergence, wettable powder; observed 30 days later
Procedure: as §2

Foxtail meadow = assay: Upland Soil Application Test; conditions: 30 g ai/a; soil application before emergence, wettable powder; observed 30 days later
Procedure: as §2

Soybean (Glycine max) = assay: Upland Foliar Application Test, crop injury; conditions: 30 g ai/a; foliar application at 2-3 leaf stage, emulsion; observed on the 30th day
Excerpt: (§3) Resin-made 1/10000-are pots were filled with the soil of an upland field. Redroot pigweed, morningglory (Ipomoea pupurea), common lambsquarters, foxtail meadow, johnsongrass, barnyardgrass, green foxtail, large crabgrass, soybean, corn and cotton were separately seeded and were allowed to germinate in a green house. When each plant grew to the stage of 2-3 leaves, an emulsion formulated from a predetermined amount of each test compound in a similar manner to the method described in Formulation Example 11 was diluted with water and then sprayed at a predetermined application rate by means of a pressure-operated ULV (ultra low volume) sprayer. The application rate was controlled at 5 l per are. Influence to the crops and weeds were observed on the 30th day after the spray of the herbicides. The results are shown in Table 4 in which the degree of damages of each test plant and the degree of injury to each crop are shown in a similar manner to Test 2.

Corn (Zea maize) = assay: Upland Foliar Application Test, crop injury; conditions: 30 g ai/a; foliar application at 2-3 leaf stage, emulsion; observed on the 30th day
Excerpt: as §3

[8] = system: Cotton (Gossypium indicum); assay: Upland Foliar Application Test, crop injury; conditions: 30 g ai/a; foliar application at 2-3 leaf stage, emulsion; observed on the 30th day
Excerpt: as §3

Rice (Oryza sativa) = assay: Submerged Soil Treatment Test (Growth Stage Treatment), crop injury; conditions: 30 g ai/a, growth stage treatment (barnyardgrass two-leaf stage), granule, transplanted rice, observed 30 days later
Procedure: as §1, with “allowed to grow in a” for “allowed to germinate in a”, “rice seedlings. When the barnyardgrass grew to the two-leaf stage, each pot” for “rice seedlings. On day later (before emergence of weeds), each pot”, “injury of the rice are” for “injury of rice are”

| SMILES | Herbicidal effects Barnyardgrass (Echinochloa crus-galli) [1] | Herbicidal effects Arrowhead sp. (Sagittaria pygmaea) [2] | Herbicidal effects Barnyardgrass (Echinochloa crus-galli) [3] | Herbicidal effects Bulrush (Scirpus juncoides) [4] | Herbicidal effects Crabgrass (Digitaria adsendens) [5] | Herbicidal effects Barnyardgrass (Echinochloa crus-galli) [6] | Herbicidal effects Redroot Pigweed (Redroot Pigweed) | Herbicidal effects Foxtail (Setaria viridis) [7] | Herbicidal effects Johnsongrass (Johnsongrass) | Herbicidal effects Common lambquarters (Common lambsquarters) | Herbicidal effects Foxtail meadow (Foxtail meadow) | Crop injury Soybean (Glycine max) (Soybean (Glycine max)) | Crop injury Corn (Zea maize) (Corn (Zea maize)) | Crop injury Cotton (Gossypium indicum) [8] | Crop injury Rice (Oryza sativa) (Rice (Oryza sativa)) |
| --- | --- | --- | --- | --- | --- | --- | --- | --- | --- | --- | --- | --- | --- | --- | --- |
| COc1cc(OC)nc(Oc2cccnc2C2OCCO2)n1 [Compound No. 6] | 5 (0-5 (Death)) | 5 (0-5 (Death)) | 5 (0-5 (Death)) | 5 (0-5 (Death)) | 3 (11-40 (Medium damages)) | 3 (11-40 (Medium damages)) | 4 (6-10 (Severe damages)) | 4 (6-10 (Severe damages)) | 5 (0-5 (Death)) | 4 (6-10 (Severe damages)) | 4 (6-10 (Severe damages)) | 0 (91-100 (No damages)) | 0 (91-100 (No damages)) | 0 (91-100 (No damages)) | 0 (91-100 (No damages)) |
| COc1cc(OC)nc(Oc2cccnc2C2OCC(C)O2)n1 (stereo not drawn) [Compound No. 7] | 5 (0-5 (Death)) | 4 (6-10 (Severe damages)) | 5 (0-5 (Death)) | 5 (0-5 (Death)) | 4 (6-10 (Severe damages)) | 5 (0-5 (Death)) | 4 (6-10 (Severe damages)) | 5 (0-5 (Death)) | 5 (0-5 (Death)) | 4 (6-10 (Severe damages)) | 4 (6-10 (Severe damages)) | 0 (91-100 (No damages)) | 0 (91-100 (No damages)) | 0 (91-100 (No damages)) | 0 (91-100 (No damages)) |
| COc1cc(OC)nc(Oc2cccnc2C2OCCCO2)n1 [Compound No. 8] | 4 (6-10 (Severe damages)) | 4 (6-10 (Severe damages)) | 5 (0-5 (Death)) | 4 (6-10 (Severe damages)) | 3 (11-40 (Medium damages)) | 4 (6-10 (Severe damages)) | 3 (11-40 (Medium damages)) | 3 (11-40 (Medium damages)) | 4 (6-10 (Severe damages)) | 3 (11-40 (Medium damages)) | 4 (6-10 (Severe damages)) | 0 (91-100 (No damages)) | 0 (91-100 (No damages)) | 0 (91-100 (No damages)) | 0 (91-100 (No damages)) |
